Experimental findings from ChEMBL document CHEMBL1140081 (J Med Chem, 2008) are described below.

Data set [1] can be described thus: Metabolic stability in rhesus monkey liver microsomes. Format: ADME, Macaca mulatta, Microsome.
The subject of data set [2] is Liver microsomes. Put plainly: Metabolic stability in human liver microsomes. In kind it is ADME, Microsome. On the technique in general: Microsomes from liver hold many membrane-bound enzymes, among them those of drug oxidation.
A short description of data set [3]: Metabolic stability in Sprague-Dawley rat bile. In kind it is ADME.
The nature of data set [4]: Metabolic stability in po dosed dog bile. The note with it: in vivo. In kind it is ADME, organism-based, Canis lupus familiaris.
Data set [5] can be described thus: Metabolic stability in dog liver microsomes. In kind it is ADME, Canis lupus familiaris, Microsome.
Data set [6] concerns Liver microsomes. Description: Metabolic stability in Sprague-Dawley rat liver microsomes. Format: ADME, Microsome.
Data set [7] in a line: Metabolic stability in iv dosed dog urine assessed as raltegravir-glucuronide recovery. In kind it is ADME, organism-based, Canis lupus familiaris. The note with it: in vivo.
Data set [8] can be described thus: Metabolic stability in iv dosed Sprague-Dawley rat bile assessed as raltegravir-glucuronide recovery. In kind it is ADME, organism-based. The note with it: in vivo.
The nature of data set [9]: Metabolic stability in iv dosed Sprague-Dawley rat urine assessed as raltegravir-glucuronide recovery. In kind it is ADME, organism-based. The note with it: in vivo.
Data set [10] in a line: Metabolic stability in iv dosed dog urine assessed as drug recovery. The note with it: read-out: Drug uptake. Format: ADME, organism-based, Canis lupus familiaris.
Data set [11] is described as follows: Metabolic stability in iv dosed dog urine assessed as drug recovery after 0 to 24 hrs. The following applies: read-out: Drug uptake. In kind it is ADME, organism-based, Canis lupus familiaris.
The nature of data set [12]: Metabolic stability in iv dosed Sprague-Dawley rat urine assessed as drug recovery. Format: ADME, organism-based. The following applies: read-out: Drug uptake.
The nature of data set [13]: Metabolic stability in iv dosed Sprague-Dawley rat bile assessed as drug recovery. In kind it is ADME, organism-based. The note with it: read-out: Drug uptake.
Data set [14] is described as follows: Cmax in dog at 10 mg/kg, po. Format: ADME, organism-based, Canis lupus familiaris. Also noted: dose 10 mg/kg, route oral. The following applies: in vivo.
The nature of data set [15]: Plasma concentration in dog at 10 mg/kg, po after 12 hrs. Format: ADME, organism-based, Canis lupus familiaris. Also noted: dose 10 mg/kg, route oral.
In data set [16] the test system is Human immunodeficiency virus 1. Put plainly: Antiviral activity against HIV1 3B in human MT4 cells in presence of 50% normal human serum. In kind it is functional. The note with it: read-out: CIC95.
A short description of data set [17]: AUC in dog at 2 mg/kg, po. Also noted: dose 2 mg/kg, route oral. The note with it: plasma. Format: ADME, organism-based, Canis lupus familiaris.
Data set [18] in a line: Terminal half life in dog at 10 mg/kg, po. Format: ADME, organism-based, Canis lupus familiaris. Also noted: dose 10 mg/kg, route oral. The following applies: in vivo, read-out: beta t1/2 (converted).
Data set [19] in a line: Oral bioavailability in po dosed dog. Format: ADME, organism-based, Canis lupus familiaris. The note with it: in vivo.
Data set [20] can be described thus: Cmax in po dosed Sprague-Dawley rat. Also noted: route oral. In kind it is ADME, organism-based. The following applies: in vivo.
Data set [21] in a line: Oral bioavailability in po dosed Sprague-Dawley rat. In kind it is ADME, organism-based. The note with it: in vivo.
Data set [22] in a line: Cmax in dog at 2 mg/kg, po. In kind it is ADME, organism-based, Canis lupus familiaris. Also noted: dose 2 mg/kg, route oral. The following applies: in vivo.
Data set [23] can be described thus: Plasma concentration in dog at 2 mg/kg, po after 12 hrs. Format: ADME, organism-based, Canis lupus familiaris. Set-up: dose 2 mg/kg, route oral.
A short description of data set [24]: Terminal half life in po dosed Sprague-Dawley rat. In kind it is ADME, organism-based. The note with it: in vivo.
Data set [25] can be described thus: AUC in Sprague-Dawley rat at 3 mg/kg, po. In kind it is ADME, organism-based. Also noted: dose 3 mg/kg, route oral. The following applies: plasma.

One may read the Cmax as the peak of the concentration-time curve. In general, AUC refers to concentration integrated over time. The term bioavailability denotes the share of a dose that reaches the circulation, judged against a reference dose that is usually intravenous.

As to `CN(C)C(=O)C(=O)NC(C)(C)c1nc(C(=O)NCc2ccc([19F])cc2)c(O)c(=O)n1C`, the Stability in data set [1] was 66.2 mL/day/kg; in the data set with Liver microsomes [2], 12 mL/day/kg; in [5], 4.3 mL/day/kg; in the data set on Liver microsomes [6] it was 28.8 mL/day/kg. Moreover, the Activity was determined as 5% in data set [3] and 13% in data set [4].

On to `Cc1nnc(C(=O)NC(C)(C)c2nc(C(=O)NCc3ccc([19F])cc3)c(O)c(=O)n2C)o1`, for which the Stability in data set [1] turned out to be 51.8 mL/day/kg; with Liver microsomes [2] it was 13 mL/day/kg; in data set [5], 2.9 mL/day/kg; in the data set with Liver microsomes [6], 49 mL/day/kg. In addition, the Drug uptake amounted to 35% in [7], 90% in [8] and 90% in data set [9]. Also, the dose excreted was determined as 65% in [10], 30% in [11], 10% in data set [12] and 10% in data set [13].

Take `Cc1nnc(C(=O)NC(C)(C)c2nc(C(=O)NCc3ccc(F)cc3)c([O-])c(=O)n2C)o1.[K+]` [RALTEGRAVIR POTASSIUM]: the values for the Cmax in [14], in [20] and in data set [22] were 24000 nM, 1600 nM and 4600 nM, respectively. For the same compound, the concentration at 12 h in data set [15] is 350 nM; in data set [23], 160 nM. Further, the IC95 in [16] amounted to 31 nM. In addition, the AUC stood at 11 µM·h in [17] and 1.3 µM·h in [25]. In addition, the figures for the half-life in [18] and in data set [24] were 13 h and 7.5 h, respectively. Besides, the bioavailability in data set [19] came out at 69%; in data set [21], 45%.
